In patent publication US20020110808A1, “Toxicant-induced differential gene expression” (priority 2000, published 2002):

Columns and labels:
HepG2 cells [1] = assay: BrdU incorporation cell proliferation assay; type: cell-based; conditions: Homo sapiens
Description: HepG2 cells (see e.g., Aden et al., Nature 282:615-616 (1979)) (ATCC HB-8065) were maintained in DMEM/F-12 medium with 10% fetal bovine serum and 1% antibiotic/antimycotic. For routine culturing and mRNA preps, cells were grown in 75 cm^2 flasks and split every 4-5 days. For plate assays, cells were plated in 96-well microtiter plates at 1×10^5 cells per well in 100 μl of growth medium.
Depending on the desired exposure time, cell treatments began 3 or 4 days after splitting or plating. At this time, the cells were near or at confluency. […] Cell treatments were at 37° C.
Uptake of 5-bromo-2′-deoxyuridine (BrdU) was measured using the Cell Proliferation ELISA kit from Boehringer-Mannheim (Indianapolis, Ind.).
Cell proliferation assays based on measurement of BrdU incorporation were performed according to the manufacturer's instructions (Boehringer Mannheim “Cell Proliferation ELISA Kit”).

HepG2 cells [2] = assay: Dot blot array expression assay; conditions: 24 hr, two-fold threshold
Description: The quality of the PCR reactions was assessed by agarose gel electrophoresis. Human genomic DNA (Clontech) and PCR products were robotically dotted in 100 nl aliquots onto positively-charged nylon membranes using the BioDot instrument (Cartesian Technologies, Inc.). After uv-crosslinking, the membranes were rinsed in 2× SSC and allowed to air-dry. Prior to addition of labeled cDNA probes, membranes were washed in boiling 1% SDS, rinsed with 6× SSC, and incubated in 5 mL of 42° C. Microhyb solution (Research Genetics) for 2 hr. Ten minutes prior to addition of the probes, the Microhyb solution was replaced with an equal amount of fresh 42° C. Microhyb solution containing denatured human Cot-1 DNA (Gibco BRL) and poly(dA) primer (Research Genetics) (both at final concentrations of 1 ng/μl).
For each reverse transcription reaction, 2 μg of mRNA was incubated with oligo(dT) primer (200 ng/μl) at 70° C. for 10 minutes. Tubes were chilled and spun briefly. The following reagents (with the final concentrations in parentheses) were added: first strand buffer (1×), DTT (10 mM), dNTP mix (1 mM each of dATP, dGTP, dTTP), [α-^33P]dCTP (3.3 μCi/μl) and Superscript II Reverse Transcriptase (10 units/μL). The samples were kept at 37° C. for 1.5 hr. Unincorporated nucleotides were removed by spinning the reaction mixture through a G-50 column. […] Probe quality was assessed by electrophoresis on a 10% denaturing polyacrylamide minigel. Denatured probes were added directly to the Microhyb solution and hybridized overnight at 42° C. Membranes were washed twice under each of the following conditions: (1) 2× SSC/0.1% SDS at room temperature, 5 min; (2) 0.2× SSC/0.1% SDS at room temperature, 5 min; (3) 0.2× SSC/0.1% SDS at 42° C., 15 min, (4) 0.1× SSC/0.1% SDS at 68° C., 15 min. Membranes were then rinsed briefly in 2× SSC at room temperature, covered with Saran wrap, and exposed to storage phoshpor screens. After three days, screens were scanned using a Storm phosphorimager (Molecular Dynamics). Images were analyzed using ImageQuant software (Molecular Dynamics).
We employed a rapid dot blot assay as a secondary screen for gene expression changes. We tested each of the unique clones against each of the three treatments. […] For these clones, the dot blot assay functioned not as a confirmation assay but as an initial screen for differential expression. Dot blots were prepared by robotically arraying subclone-derived PCR products in quadruplicate onto positively charged nylon membranes. […] In general, each dot consisted of over 80 ng of PCR product, as estimated by inspection of the PCR reactions run on agarose gels. This high quantity of DNA ensured that saturation of spots, with consequent loss of quantitation, would not occur. Spots of genomic DNA were included on each filter to allow normalization between control and treated sample intensities.

HepG2 cells [3] = assay: cDNA array (GF200) expression profiling; type: cell-based, human; conditions: 20 mM acetaminophen, 16 mM caffeine, 100 mM thioacetamide
Description: Cells were grown in DMEM/F12 medium with 10% fetal bovine serum in tissue culture flasks for 3 days following splitting, at which time they were at or near confluency. […] For each treated sample, an untreated control flask was set up with the same medium. Following the treatment period, mRNA was isolated by affinity purification on oligo(dT) cellulose resin using the Poly(A) Pure mRNA isolation kit from Ambion. RNA quality was assessed by agarose gel electrophoresis, and yields were determined by absorbance at 260 nm.
Radiolabeled cDNA for array hybridizations were prepared as follows. To a solution of 2 μg of RNA in 8 μl DEPC-treated water was added 2 μl of 1 μg/μl oligo(dT) (10-20 mer mixture, Research Genetics). After incubation for 10 min at 70° C., the solution was chilled on ice for 2 min, and then added to 6 μl of 5× first strand buffer (250 mM Tris-HCl (pH 8.3), 375 mM KCl, 15 mM MgCl2; Gibco-BRL), 1 μl of 0.1M DTT, 1.5 μl dNTP mix (20 mM each dATP, dGTP and dTTP), 10 μl of 10 mCi/ml [α-^33P]dCTP (1000 Ci/mmol, Amersham), and 1.5 μl of 200 U/μl reverse transcriptase (Superscript II, Gibco-BRL). Following a 90 min incubation at 37° C., cDNA targets were purified by passage through G-50 Sephadex spin columns (Pharmacia) or Bio-Spin 6 columns (BioRad).
GF200 cDNA arrays (Research Genetics) were washed in 0.5% boiling SDS for 5 min and prehybridized for 3 hrs at 42° C. in 5 ml MicroHyb solution (Research Genetics) containing 5 μl of 1 μg/ml poly(dA) (Research Genetics) and 5 μl of 1 μg/ml human Cot-I DNA (Gibco-BRL) that was denatured for 3 min at 100° C. prior to use. Labeled target nucleic acids, boiled for 3 min, were added directly, and hybridization was allowed to proceed for 16-18 hr at 42° C. in roller bottles in hybridization ovens. Arrays were washed twice in 2× SSC, 1% SDS at room temperature for 2 min, and then twice in 0.5× SSC, 1% SDS at 65° C. for 20 min. Arrays were exposed to storage phosphor screens for 3 days and scanned using a phosphorimager (Molecular Dynamics). Arrays were stripped for reuse by placing in boiling 0.5% SDS and then incubating for 1.5 hr with shaking at room temperature, allowing to solution to cool. After stripping, arrays were exposed to storage phosphor screens overnight to confirm loss of signal.
Spot intensities were determined using Pathways software (Research Genetics). Data from quadruplicate sets of hybridizations were normalized by local regression using NLR software (Tom Kepler, North Carolina State University). Cluster analysis was carried out using the Clustan Graphics software package from Clustan Limited (Edinburgh).

Cn1c(=O)c2c(ncn2C)n(C)c1=O [caffeine]
inhibition at 16000 µM (HepG2 cells [1]; HepG2, 24 h, read-out: Inhibition of BrdU uptake (cell proliferation)): 67 to 80%
IC50 (HepG2 cells [1]; HepG2, read-out: IC50, BrdU incorporation in HepG2 cells): ~6 mM
Number of 27 unconfirmed or non-matching clones showing an expression change (HepG2 cells [2]): 7
Number of genes with statistically significant (p<0.05) change in expression in three or more adjacent time points (HepG2 cells [3]; 1 to 24 hr time course): 158
Global differential gene expression (rms) over time (HepG2 cells [3]; 1 to 24 hr): few changes until 6 hr, after which overall differential expression is fairly constant
